Reference: EPA's ToxValDB 9.5 (doi:10.2903/j.efsa.2005.33ar)

Assays:
Aphidius rhopalosiphi = conditions: not reported; mortality
Apis mellifera = conditions: acute, dermal, mortality
Bibionidae = conditions: chronic/long-term; duration: 26 days
Bird = conditions: acute; oral; unspecified; mortality
Canidae = conditions: chronic; duration: 1 years; Dog Other; body weight
Daphnia magna = conditions: chronic/long-term; duration: 21 days; mobility
Landoltia sp. = conditions: chronic/long-term; biomass
Oryctolagus sp. = conditions: reproduction developmental; body weight
Rattus norvegicus = conditions: for NOAEL: reproduction developmental

With `CC1(C)CC/C(=C\c2ccc(Cl)cc2)C1(O)Cn1cncn1` (stereo not drawn) [Triticonazole] the LEL (Aphidius rhopalosiphi) was 25 g/ha, the LD50 (Apis mellifera) was over 156 µg/piece and the LD50 (Apis mellifera; duration: 48 hours) was over 100 µg/piece. It also gave an NOEC (Bibionidae) of 0.0777 mg/L, an LD50 (Bird) of over 2000 mg/kg and an NOAEL (Canidae) of 2.5 mg/kg-day. The LD50 (Colinus virginianus; acute, oral, diet, mortality) was over 693 mg/kg, the NOAEL (Colinus virginianus; reproduction developmental) was 19.5 mg/kg-day and the NOEC (Daphnia magna) was 0.092 mg/L. It also gave an NOEC (Landoltia sp.) of 0.33 mg/L, an LC50 (Oncorhynchus mykiss; acute, duration: 96 hours, mortality) of over 3.6 µg/mL and an NOEC (Oncorhynchus mykiss; chronic/long-term, duration: 28 days, growth) of 0.01 mg/L. For the same compound, the NOAEL (Oryctolagus sp.) was 5 mg/kg-day, the LD50 (Rattus norvegicus; acute, mortality) was over 2000 mg/kg and the NOAEL (Rattus norvegicus; F) was 48 mg/kg-day. It also gave an NOAEL (Rattus norvegicus; M) of 49 mg/kg-day, an LC50 (Tagia sp.; acute, duration: 14 days, mortality) of over 1000 mg/kg and an NOEC (Tagia sp.; chronic/long-term, duration: 56 days, reproduction) of 500 mg/kg.
